Measured values: paper doi:10.1101/2020.06.19.161828v1 (biorxiv, 2020)

Molecular target: T1, LmME (Leishmania major, UniProt Q4QAQ6)
T1 sequence (Q4QAQ6 1-573): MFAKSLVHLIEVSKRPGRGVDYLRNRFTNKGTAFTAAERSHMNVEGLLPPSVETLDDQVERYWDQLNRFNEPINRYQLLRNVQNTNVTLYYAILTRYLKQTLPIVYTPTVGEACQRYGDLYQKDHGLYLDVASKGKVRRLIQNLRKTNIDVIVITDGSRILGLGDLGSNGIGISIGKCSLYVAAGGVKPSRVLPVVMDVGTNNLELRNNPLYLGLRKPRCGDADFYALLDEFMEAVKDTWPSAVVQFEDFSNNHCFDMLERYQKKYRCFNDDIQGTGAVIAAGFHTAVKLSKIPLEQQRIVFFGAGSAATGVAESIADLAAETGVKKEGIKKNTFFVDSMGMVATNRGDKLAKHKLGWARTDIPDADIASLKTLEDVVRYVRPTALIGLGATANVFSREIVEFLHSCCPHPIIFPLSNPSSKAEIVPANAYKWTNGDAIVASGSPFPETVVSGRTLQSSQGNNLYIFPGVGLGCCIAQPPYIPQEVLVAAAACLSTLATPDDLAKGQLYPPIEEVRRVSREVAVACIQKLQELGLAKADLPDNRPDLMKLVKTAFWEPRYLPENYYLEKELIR
Experiment: spectrophotometric NADPH assay at […] nm, malate decarboxylation
Type: biochemical

Which IC50 does the source give for `c1ccc(-c2nnc3sc(Cc4ccc5c(c4)CCCC5)nn23)nc1` [ATR7-010] here?
Its IC50 is 1590 nM.
